This note sets out measurements from paper PMC4985754, “Folding analysis of the most complex Stevedore’s protein knot” (Scientific Reports, 2016).

The target of data set [1] is T1, DehI (Pseudomonas putida, UniProt Q8GJ84).
T1 construct: domains 1-130 and 166-296, linker 131-165
T1 sequence (Q8GJ84 1-296): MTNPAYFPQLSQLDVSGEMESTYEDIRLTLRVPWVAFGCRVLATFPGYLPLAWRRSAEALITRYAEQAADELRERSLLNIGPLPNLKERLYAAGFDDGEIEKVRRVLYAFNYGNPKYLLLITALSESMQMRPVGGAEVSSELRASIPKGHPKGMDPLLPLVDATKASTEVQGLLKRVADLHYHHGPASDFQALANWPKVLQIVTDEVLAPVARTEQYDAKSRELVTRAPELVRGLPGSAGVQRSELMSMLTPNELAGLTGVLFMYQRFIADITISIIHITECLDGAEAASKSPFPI
In words: colorimetric phenol red dehalogenase assay, absorbance at […] nm. In kind it is biochemical. Conditions: 10 mM substrate, 10 uM enzyme, 50 mM HEPES pH 8.2, 20 mM Na2SO4, 1 mM EDTA, room temperature overnight.

Data set [2] deals with the molecule itself. Description: SEC-MALS; DehI in solution, mono-dispersed major elution peak; buffer A (20 mM potassium phosphate pH 8, 300 mM NaCl) unless stated otherwise; observed MW compared with the theoretical MW of the homodimer.

`CC(Cl)C(=O)O` (centres unmarked) [2-chloropropionic acid]: in data set [1], the “colorimetric phenol red dehalogenase assay, absorbance at 559 nm” value is 2-chloropropionic acid was used as the substrate of DehI.

B1: DehI, α-haloacid dehalogenase from Pseudomonas putida strain PP3 (enzyme)
chain: MTNPAYFPQLSQLDVSGEMESTYEDIRLTLRVPWVAFGCRVLATFPGYLPLAWRRSAEALITRYAEQAADELRERSLLNIGPLPNLKERLYAAGFDDGEIEKVRRVLYAFNYGNPKYLLLITALSESMQMRPVGGAEVSSELRASIPKGHPKGMDPLLPLVDATKASTEVQGLLKRVADLHYHHGPASDFQALANWPKVLQIVTDEVLAPVARTEQYDAKSRELVTRAPELVRGLPGSAGVQRSELMSMLTPNELAGLTGVLFMYQRFIADITISIIHITECLDGAEAASKSPFPI
notes: DehI, α-haloacid dehalogenase, Pseudomonas putida strain PP3; No tag cleavage is described; The theoretical MW of the homodimer is printed as 69.9 kDa, which may include the tag (surmise); also called wt; source: E. coli BL21 (DE3), purified (HisTrap HP, Superdex 200 SEC)
In the case of B1, in data set [2], the “stoichiometry N” value came out at 2.
